Reference: patent publication US20110281896A1, “OPTICALLY PURE QUINAZOLINE COMPOUNDS” (Jiangsu Hansoh Pharmaceutical Co. Ltd, priority 2009, published 2011)

Key:
[1] = tested on: A431; assay: Antitumor activity in vitro, SRB cell proliferation inhibition; assay type: cell-based; settings: 72 h incubation, Logit method
Experimental: (§1) Evaluation of Antitumor Activity In Vitro
(§2) Cell Strains: A431; MCF-7
(§3) Experiment Design: Cells were incubated with different concentrations of compounds for 72 hours. The inhibition of cell proliferation by the compounds was evaluated by SRB, followed by calculation of the inhibition rate. Then, value of IC50 was calculated by using-Logit method base on the inhibition rate and used to compare in vitro antitumor activity of the compounds.
(§4) Method for Calculating the Inhibition Rate: Inhibition rate (%)=(OD value of control group−OD value of drug group)/OD value of control group×100%

[2] = tested on: MCF-7; assay: as above; assay type: cell-based; settings: 72 h incubation, Logit method
Experimental: as §1, §2, §3, §4

[3] = Homo sapiens, A-431, A431 cells
[4] = Homo sapiens, MCF7, MCF-7 cells

SMILES | IC50 [1, 3] [µM] | IC50 [2, 4] [µM] | IC50 ([1]; A431 cells) [µM] | IC50 ([2]; MCF-7 cells) [µM]
CS(=O)(=O)C[C@@H](N)c1ccc(-c2ccc3ncnc(Nc4ccc(OCc5cccc(F)c5)c(Cl)c4)c3c2)o1 [Compound 92, (S)—N-(4-(3-fluorobenzyl-oxy)-3-chlorophenyl)-6-(5-(1-(amino)-2-(methylsulfonyl)ethyl)furan-2-yl)quinazolin-4-amine] | 0.422 | 9.34 |  | 
CN[C@H](CS(C)(=O)=O)c1ccc(-c2ccc3ncnc(Nc4ccc(OCc5cccc(F)c5)c(Cl)c4)c3c2)o1 [Compound 93, (S)—N-(4-(3-fluorobenzyl-oxy)-3-chlorphenyl)-6-(5-(1-(methylamino)-2-(methylsulfonyl)ethyl)furan-2-yl)quinazolin-4-amine] |  |  | 0.46 | 8.86
CCN[C@H](CS(C)(=O)=O)c1ccc(-c2ccc3ncnc(Nc4ccc(OCc5cccc(F)c5)c(Cl)c4)c3c2)o1 [Compound 94, (S)—N-(4-(3-fluorobenzyl-oxy)-3-chlorophenyl)-6-(5-(1-(ethylamino)-2-(methylsulfonyl)ethyl)furan-2-yl)quinazolin-4-amine] | 0.652 | 7.85 |  | 
CCCN[C@H](CS(C)(=O)=O)c1ccc(-c2ccc3ncnc(Nc4ccc(OCc5cccc(F)c5)c(Cl)c4)c3c2)o1 [Compound 95, (S)—N-(4-(3-fluorobenzyl-oxy)-3-chlorophenyl)-6-(5-(1-(propyl-amino)-2-(methylsulfonyl)ethyl)furan-2-yl)quinazolin-4-amine] | 0.453 | 7.9 |  | 
CN(C1CC1)[C@H](CS(C)(=O)=O)c1ccc(-c2ccc3ncnc(Nc4ccc(OCc5cccc(F)c5)c(Cl)c4)c3c2)o1 [Compound 96, (S)—N-(4-(3-fluorobenzyl-oxy)-3-chlorophenyl)-6-(5-(1-(cyclopropyl-methyl-amino)-2-(methylsulfonyl)ethyl)furan-2-yl)quinazolin-4-amine] | 0.578 | 6.7 |  | 
CCN(CC)[C@H](CS(C)(=O)=O)c1ccc(-c2ccc3ncnc(Nc4ccc(OCc5cccc(F)c5)c(Cl)c4)c3c2)o1 [Compound 98, (S)—N-(4-(3-fluorobenzyl-oxy)-3-chlorophenyl)-6-(5-(1-(N,N-diethyl-amino)-2-(methyl-sulfonyl)ethyl)furan-2-yl)quinazolin-4-amine] | 0.677 | 7.66 |  | 
CCCN(CCC)[C@H](CS(C)(=O)=O)c1ccc(-c2ccc3ncnc(Nc4ccc(OCc5cccc(F)c5)c(Cl)c4)c3c2)o1 [Compound 99, (S)—N-(4-(3-fluorobenzyl-oxy)-3-chlorophenyl)-6-(5-(1-(N,N-dipropyl-amino)-2-(methylsulfonyl)ethyl)furan-2-yl)quinazolin-4-amine] | 0.759 | 5.92 |  | 
CCN(C)[C@H](CS(C)(=O)=O)c1ccc(-c2ccc3ncnc(Nc4ccc(OCc5cccc(F)c5)c(Cl)c4)c3c2)o1 [Compound 100, (S)—N-(4-(3-fluorobenzyl-oxy)-3-chlorophenyl)-6-(5-(1-(N-methyl, N-ethyl-amino)-2-(methylsulfonyl)ethyl)furan-2-yl)quinazolin-4-amine] | 0.489 | 9.9 |  | 
C=CCN[C@H](CS(C)(=O)=O)c1ccc(-c2ccc3ncnc(Nc4ccc(OCc5cccc(F)c5)c(Cl)c4)c3c2)o1 [Compound 101, (S)—N-(4-(3-fluorobenzyl-oxy)-3-chlorophenyl)-6-(5-(1-(allyl-amino)-2-(methylsulfonyl)ethyl)furan-2-yl)quinazolin-4-amine] | 0.588 | 10.4 |  | 
C#CCN[C@H](CS(C)(=O)=O)c1ccc(-c2ccc3ncnc(Nc4ccc(OCc5cccc(F)c5)c(Cl)c4)c3c2)o1 [Compound 102, (S)—N-(4-(3-fluorobenzyl-oxy)-3-chlorophenyl)-6-(5-(1-(propargyl-amino)-2-(methylsulfonyl)ethyl)furan-2-yl)quinazolin-4-amine] | 0.457 | 8.9 |  | 
CON[C@H](CS(C)(=O)=O)c1ccc(-c2ccc3ncnc(Nc4ccc(OCc5cccc(F)c5)c(Cl)c4)c3c2)o1 [Compound 103] |  |  | 0.479 | 8.82
CON(C)[C@H](CS(C)(=O)=O)c1ccc(-c2ccc3ncnc(Nc4ccc(OCc5cccc(F)c5)c(Cl)c4)c3c2)o1 [Compound 104] |  |  | 0.632 | 9
CS(=O)(=O)C[C@H](N)c1ccc(-c2ccc3ncnc(Nc4ccc(OCc5cccc(F)c5)c(Cl)c4)c3c2)o1 [Compound 105, (R)—N-(4-(3-fluorobenzyl-oxy)-3-chlorophenyl)-6-(5-(1-(amino)-2-(methylsulfonyl)ethyl)furan-2-yl)quinazolin-4-amine] | 0.664 | 7.87 |  | 
CN[C@@H](CS(C)(=O)=O)c1ccc(-c2ccc3ncnc(Nc4ccc(OCc5cccc(F)c5)c(Cl)c4)c3c2)o1 [Compound 106, (R)—N-(4-(3-fluorobenzyl-oxy)-3-chlorophenyl)-6-(5-(1-(methylamino)-2-(methylsulfonyl)ethyl)furan-2-yl)quinazolin-4-amine] | 0.469 | 7.8 |  | 
CCN[C@@H](CS(C)(=O)=O)c1ccc(-c2ccc3ncnc(Nc4ccc(OCc5cccc(F)c5)c(Cl)c4)c3c2)o1 [Compound 107, (R)—N-(4-(3-fluorobenzyl-oxy)-3-chlorophenyl)-6-(5-(1-(ethylamino)-2-(methylsulfonyl)ethyl)furan-2-yl)quinazolin-4-amine] | 0.578 | 6.77 |  | 
CCCN[C@@H](CS(C)(=O)=O)c1ccc(-c2ccc3ncnc(Nc4ccc(OCc5cccc(F)c5)c(Cl)c4)c3c2)o1 [Compound 108, (R)—N-(4-(3-fluorobenzyl-oxy)-3-chlorophenyl)-6-(5-(1-(propylamino)-2-(methylsulfonyl)ethyl)furan-2-yl)quinazolin-4-amine] | 0.529 | 5.9 |  | 
CS(=O)(=O)C[C@H](NCC1CC1)c1ccc(-c2ccc3ncnc(Nc4ccc(OCc5cccc(F)c5)c(Cl)c4)c3c2)o1 [Compound 109, (R)—N-(4-(3-fluorobenzyl-oxy)-3-chlorophenyl)-6-(5-(1-(cyclopropylmethyl-amino)-2-(methylsulfonyl)ethyl)furan-2-yl)quinazolin-4-amine] | 0.756 | 6.21 |  | 
CCN(CC)[C@@H](CS(C)(=O)=O)c1ccc(-c2ccc3ncnc(Nc4ccc(OCc5cccc(F)c5)c(Cl)c4)c3c2)o1 [Compound 111, (R)—N-(4-(3-fluorobenzyl-oxy)-3-chlorophenyl)-6-(5-(1-(N,N-diethyl-amino)-2-(methylsulfonyl)ethyl)furan-2-yl)quinazolin-4-amine] | 0.699 | 6.82 |  | 
CCCN(CCC)[C@@H](CS(C)(=O)=O)c1ccc(-c2ccc3ncnc(Nc4ccc(OCc5cccc(F)c5)c(Cl)c4)c3c2)o1 [Compound 112, (R)—N-(4-(3-fluorobenzyl-oxy)-3-chlorophenyl)-6-(5-(1-(N,N-dipropyl-amino)-2-(methylsulfonyl)ethyl)furan-2-yl)quinazolin-4-amine] | 0.855 | 6.22 |  | 
CCN(C)[C@@H](CS(C)(=O)=O)c1ccc(-c2ccc3ncnc(Nc4ccc(OCc5cccc(F)c5)c(Cl)c4)c3c2)o1 [Compound 113, (R)—N-(4-(3-fluorobenzyloxy)-3-chlorophenyl)-6-(5-(1-(N-methyl, N-ethyl-amino)-2-(methylsulfonyl)ethyl)furan-2-yl)quinazolin-4-amine] | 0.758 | 7.07 |  | 
